Data: patent US8415469B2, “Compounds and methods for kinase modulation, and indications therefor” (Plexxikon Inc., priority 2005, dated 2013)
One block for each molecule: values may come before it.

How the values were obtained:
Format in all cases: biochemical
Yes = molecular target: T1, Yes (Homo sapiens, UniProt P07947); assay: Z'-Lyte FRET kinase assay (Invitrogen), Yes; conditions: read-out: IC50, activity toward kinase Yes
T1 construct: purchased Invitrogen (Carlsbad, Calif.), screening service
Summary of the method: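 10 μM ATP, 2 μM peptide, 1% DMSO final; HEPES pH 7.5 buffer with MgCl2/EGTA/BRIJ-35. Kinase rxn 1 h RT, protease development 1 h RT, stop, read donor/acceptor ratio. Compound titrated.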

Stk6 = molecular target: T2, Stk6 (Homo sapiens, UniProt O14965); assay: Z'-Lyte FRET kinase assay (Invitrogen), Stk6; conditions: read-out: IC50, activity toward kinase Stk6
T2 construct: purchased Invitrogen (Carlsbad, Calif.), screening service
T2 sequence (O14965 1-403): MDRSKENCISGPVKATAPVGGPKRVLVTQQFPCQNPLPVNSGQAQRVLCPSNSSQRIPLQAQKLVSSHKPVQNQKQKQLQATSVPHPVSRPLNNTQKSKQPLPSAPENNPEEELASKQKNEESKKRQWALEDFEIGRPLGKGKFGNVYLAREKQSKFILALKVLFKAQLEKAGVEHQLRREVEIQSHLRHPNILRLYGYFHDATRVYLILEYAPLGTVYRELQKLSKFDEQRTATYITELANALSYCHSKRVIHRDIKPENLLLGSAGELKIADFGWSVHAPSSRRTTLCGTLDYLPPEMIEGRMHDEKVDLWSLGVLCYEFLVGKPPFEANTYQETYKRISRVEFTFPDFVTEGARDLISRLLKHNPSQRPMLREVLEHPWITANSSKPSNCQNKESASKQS

Kdr = molecular target: T3, Kdr (Homo sapiens, UniProt P35968); assay: Z'-Lyte FRET kinase assay (Invitrogen), Kdr; conditions: read-out: IC50, activity toward kinase Kdr
T3 construct: purchased Invitrogen (assay run by Invitrogen)

MAP4K4 = MAP4K4 (Homo sapiens, UniProt O95819); assay: AlphaScreen kinase assay, MAP4K4; conditions: read-out: IC50, activity toward kinase MAP4K4
Sequence of MAP4K4 (O95819 whole entry): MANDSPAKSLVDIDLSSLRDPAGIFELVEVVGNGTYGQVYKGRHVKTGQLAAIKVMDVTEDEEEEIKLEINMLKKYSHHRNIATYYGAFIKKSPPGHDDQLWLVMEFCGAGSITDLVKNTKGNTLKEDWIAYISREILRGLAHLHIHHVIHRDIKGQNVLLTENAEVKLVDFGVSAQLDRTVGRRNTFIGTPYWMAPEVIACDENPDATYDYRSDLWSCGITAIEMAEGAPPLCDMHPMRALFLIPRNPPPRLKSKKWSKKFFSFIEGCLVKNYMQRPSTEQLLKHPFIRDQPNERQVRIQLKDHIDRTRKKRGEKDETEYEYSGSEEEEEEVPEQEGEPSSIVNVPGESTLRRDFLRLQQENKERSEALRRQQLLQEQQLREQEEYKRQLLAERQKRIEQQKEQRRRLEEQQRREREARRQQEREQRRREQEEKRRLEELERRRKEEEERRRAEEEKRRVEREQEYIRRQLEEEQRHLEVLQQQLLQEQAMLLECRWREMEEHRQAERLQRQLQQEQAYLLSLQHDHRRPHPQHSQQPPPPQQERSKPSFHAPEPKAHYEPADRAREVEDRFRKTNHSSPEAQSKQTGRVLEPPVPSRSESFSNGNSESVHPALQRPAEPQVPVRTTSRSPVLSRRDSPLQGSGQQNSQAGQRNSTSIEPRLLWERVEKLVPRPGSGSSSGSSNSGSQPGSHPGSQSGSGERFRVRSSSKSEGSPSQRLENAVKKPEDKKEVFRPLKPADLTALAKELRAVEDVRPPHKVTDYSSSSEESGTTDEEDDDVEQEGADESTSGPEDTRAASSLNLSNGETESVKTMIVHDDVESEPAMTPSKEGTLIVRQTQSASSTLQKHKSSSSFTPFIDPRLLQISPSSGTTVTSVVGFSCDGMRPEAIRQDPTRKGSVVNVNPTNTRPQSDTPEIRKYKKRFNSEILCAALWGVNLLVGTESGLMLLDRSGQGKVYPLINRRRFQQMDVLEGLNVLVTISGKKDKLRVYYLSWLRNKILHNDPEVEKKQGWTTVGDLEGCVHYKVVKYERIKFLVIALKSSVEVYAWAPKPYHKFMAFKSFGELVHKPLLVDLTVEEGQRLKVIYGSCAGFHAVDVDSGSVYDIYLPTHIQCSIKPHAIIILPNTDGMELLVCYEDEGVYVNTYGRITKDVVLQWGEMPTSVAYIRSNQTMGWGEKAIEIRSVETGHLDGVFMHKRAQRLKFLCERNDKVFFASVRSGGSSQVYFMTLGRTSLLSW

Flt1 = molecular target: T4, Flt1 (Homo sapiens, UniProt P17948); assay: AlphaScreen kinase assay, Flt1; conditions: read-out: IC50, activity toward kinase Flt1
T4 construct: P1826.pETN6 BI-PTP FLT1 M799-D1165-X WT; His6 (N); made in house; host or cells: E. coli (PTP1B co-expressed)
T4 sequence (P17948 with tags, fused parts or gaps): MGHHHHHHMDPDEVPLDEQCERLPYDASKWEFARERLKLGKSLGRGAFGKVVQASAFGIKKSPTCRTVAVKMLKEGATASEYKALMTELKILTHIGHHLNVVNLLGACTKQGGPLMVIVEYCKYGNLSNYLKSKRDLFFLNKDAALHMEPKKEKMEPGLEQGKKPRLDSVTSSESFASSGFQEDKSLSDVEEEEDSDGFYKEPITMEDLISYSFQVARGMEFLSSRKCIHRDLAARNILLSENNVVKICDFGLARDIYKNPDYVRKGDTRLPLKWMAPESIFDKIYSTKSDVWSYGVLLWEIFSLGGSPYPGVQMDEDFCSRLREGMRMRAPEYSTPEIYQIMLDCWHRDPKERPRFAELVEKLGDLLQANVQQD

Akt3 = Akt3 (Homo sapiens, UniProt Q9Y243); assay: AlphaScreen kinase assay, Akt3; conditions: read-out: IC50, activity toward kinase Akt3
Sequence of Akt3 (Q9Y243 whole entry): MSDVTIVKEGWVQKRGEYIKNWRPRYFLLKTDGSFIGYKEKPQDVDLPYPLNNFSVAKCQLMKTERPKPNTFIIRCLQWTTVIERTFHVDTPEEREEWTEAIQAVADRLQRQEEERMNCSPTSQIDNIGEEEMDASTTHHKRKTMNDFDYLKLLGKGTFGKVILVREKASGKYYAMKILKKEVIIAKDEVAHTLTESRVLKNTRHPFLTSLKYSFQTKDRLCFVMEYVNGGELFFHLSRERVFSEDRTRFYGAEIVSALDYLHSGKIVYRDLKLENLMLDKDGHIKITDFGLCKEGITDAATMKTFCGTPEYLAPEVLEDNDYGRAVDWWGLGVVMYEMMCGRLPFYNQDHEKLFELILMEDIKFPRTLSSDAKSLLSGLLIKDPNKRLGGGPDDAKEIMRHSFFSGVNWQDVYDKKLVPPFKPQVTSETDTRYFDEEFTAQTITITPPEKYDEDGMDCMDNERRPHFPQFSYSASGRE
Description: AlphaScreen assay was used to screen additional kinases. The assay is similarly dependent on the phosphorylation of a peptide substrate. In this assay, an antibody that recognizes phosphorylated substrate is bound to an acceptor bead. The peptide substrate is attached to biotin, which binds to a donor head that contains streptavidin. Thus phosphorylated substrate is bound by antibody and streptavidin, bringing the donor and acceptor heads into close proximity when kinase is not inhibited. The donor produces singlet oxygen which results in emission from the acceptor when they are in close proximity. Conversely, when kinase is inhibited, the donor and acceptor beads are not associated and the emission from the acceptor is reduced.
AlphaScreen assays were done using compounds dissolved in DMSO to a concentration of 20 mM. The compounds were diluted accordingly to the desired final concentrations in each sample well, using 1:3 serial dilution for a total of 8 concentration points.

Ret = molecular target: T5, Ret (Homo sapiens, UniProt P07949); assay: AlphaScreen kinase assay, Ret; conditions: read-out: IC50, activity toward kinase Ret
T5 construct: P1378.pET-SF BI-PTP RET H661-R1012 HIS; made in house
T5 sequence (P07949 with tags, fused parts or gaps): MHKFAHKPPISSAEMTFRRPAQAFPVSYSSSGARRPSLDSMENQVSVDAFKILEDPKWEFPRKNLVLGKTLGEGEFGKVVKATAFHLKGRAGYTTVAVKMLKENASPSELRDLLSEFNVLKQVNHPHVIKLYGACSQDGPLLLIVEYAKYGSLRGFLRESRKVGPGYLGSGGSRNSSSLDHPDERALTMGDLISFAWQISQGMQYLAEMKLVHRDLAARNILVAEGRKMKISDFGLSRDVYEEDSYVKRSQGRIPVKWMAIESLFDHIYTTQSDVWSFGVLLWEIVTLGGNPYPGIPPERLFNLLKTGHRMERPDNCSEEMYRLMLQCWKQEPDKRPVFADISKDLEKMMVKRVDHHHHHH

c-Raf-1 = molecular target: T6, c-Raf-1 (Homo sapiens, UniProt P04049); assay: AlphaScreen kinase assay, c-Raf-1; conditions: read-out: IC50, activity toward kinase c-Raf-1
T6 construct: purchased Upstate Biotechnology
T6 sequence (P04049 whole entry): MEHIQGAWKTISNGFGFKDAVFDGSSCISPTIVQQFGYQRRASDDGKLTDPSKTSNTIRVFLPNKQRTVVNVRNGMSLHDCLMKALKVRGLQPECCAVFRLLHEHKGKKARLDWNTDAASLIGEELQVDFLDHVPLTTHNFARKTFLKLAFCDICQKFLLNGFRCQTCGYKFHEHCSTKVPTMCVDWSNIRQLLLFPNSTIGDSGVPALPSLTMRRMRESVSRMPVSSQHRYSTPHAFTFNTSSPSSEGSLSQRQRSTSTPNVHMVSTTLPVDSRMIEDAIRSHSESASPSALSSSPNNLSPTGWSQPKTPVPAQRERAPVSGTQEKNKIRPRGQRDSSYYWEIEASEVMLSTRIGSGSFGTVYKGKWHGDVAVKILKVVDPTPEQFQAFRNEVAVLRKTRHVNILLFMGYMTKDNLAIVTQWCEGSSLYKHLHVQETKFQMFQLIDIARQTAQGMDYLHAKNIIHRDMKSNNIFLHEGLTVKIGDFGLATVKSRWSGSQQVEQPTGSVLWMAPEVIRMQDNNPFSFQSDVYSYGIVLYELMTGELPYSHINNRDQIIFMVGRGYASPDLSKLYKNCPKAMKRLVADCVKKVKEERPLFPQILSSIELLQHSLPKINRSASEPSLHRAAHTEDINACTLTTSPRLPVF

B-Raf = molecular target: T7, B-Raf (Homo sapiens, UniProt P15056); assay: AlphaScreen kinase assay, B-Raf; conditions: read-out: IC50, activity toward kinase B-Raf
T7 construct: purchased Upstate Biotechnology
T7 sequence (P15056 whole entry): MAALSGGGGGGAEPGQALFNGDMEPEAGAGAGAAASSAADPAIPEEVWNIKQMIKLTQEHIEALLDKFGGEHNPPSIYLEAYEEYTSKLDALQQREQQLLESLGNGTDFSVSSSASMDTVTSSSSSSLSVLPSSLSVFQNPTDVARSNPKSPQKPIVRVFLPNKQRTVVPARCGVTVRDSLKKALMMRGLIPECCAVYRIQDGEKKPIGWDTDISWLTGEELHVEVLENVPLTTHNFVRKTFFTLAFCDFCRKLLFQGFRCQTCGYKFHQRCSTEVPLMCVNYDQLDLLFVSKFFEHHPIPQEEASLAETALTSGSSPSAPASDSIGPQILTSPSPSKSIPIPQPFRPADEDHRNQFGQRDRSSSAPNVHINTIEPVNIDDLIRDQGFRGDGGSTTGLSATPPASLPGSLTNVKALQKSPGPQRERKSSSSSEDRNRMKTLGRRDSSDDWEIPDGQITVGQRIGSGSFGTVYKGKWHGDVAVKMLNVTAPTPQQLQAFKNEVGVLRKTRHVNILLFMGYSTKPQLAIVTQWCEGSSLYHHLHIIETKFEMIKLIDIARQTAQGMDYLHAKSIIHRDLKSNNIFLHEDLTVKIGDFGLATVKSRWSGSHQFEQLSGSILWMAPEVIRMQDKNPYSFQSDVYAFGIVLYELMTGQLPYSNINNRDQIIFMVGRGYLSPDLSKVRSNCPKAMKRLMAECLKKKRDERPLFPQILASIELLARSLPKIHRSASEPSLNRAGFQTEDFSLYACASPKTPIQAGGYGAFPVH

B-Raf V600E = molecular target: T8, B-Raf V600E (Homo sapiens, UniProt P15056, V600E); assay: AlphaScreen kinase assay, B-Raf V600E; conditions: read-out: IC50, activity toward kinase B-Raf V600E
T8 construct: P4254. pFastBacBD-CDC37 BRAF D437-K722-X, V600E; His6 with pFastBac HT leader (TEV site) (N); made in house; host or cells: Sf9 (baculovirus; chaperone CDC37 co-expressed)
T8 sequence (P15056 with tags, fused parts or gaps V600E): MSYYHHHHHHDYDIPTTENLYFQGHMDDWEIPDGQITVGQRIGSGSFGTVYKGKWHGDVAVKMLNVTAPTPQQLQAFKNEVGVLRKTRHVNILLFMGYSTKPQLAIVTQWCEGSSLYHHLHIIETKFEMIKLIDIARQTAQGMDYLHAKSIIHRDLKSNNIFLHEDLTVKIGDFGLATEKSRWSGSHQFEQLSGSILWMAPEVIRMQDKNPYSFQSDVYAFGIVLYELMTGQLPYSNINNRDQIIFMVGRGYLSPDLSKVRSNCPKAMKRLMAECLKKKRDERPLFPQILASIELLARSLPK

FGFR1 = molecular target: T9, FGFR1 (Homo sapiens, UniProt P11362, C488A/C584S); assay: AlphaScreen kinase assay, FGFR1; conditions: read-out: IC50, activity toward kinase FGFR
T9 construct: P1351.pET N6 BI-PTP FGFR A458-E765-X C488A, C584S; made in house; host or cells: E. coli (PTP1B co-expressed)
T9 sequence (P11362 458-765 C488A/C584S): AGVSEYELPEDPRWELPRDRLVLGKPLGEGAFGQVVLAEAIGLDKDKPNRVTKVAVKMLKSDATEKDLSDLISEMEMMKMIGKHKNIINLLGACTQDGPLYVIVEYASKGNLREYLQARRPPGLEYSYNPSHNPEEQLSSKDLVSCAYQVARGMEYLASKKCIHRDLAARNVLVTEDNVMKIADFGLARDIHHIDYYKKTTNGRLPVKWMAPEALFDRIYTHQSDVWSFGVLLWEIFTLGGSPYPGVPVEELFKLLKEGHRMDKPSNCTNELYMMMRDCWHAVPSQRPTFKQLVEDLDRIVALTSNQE

Zap70 = molecular target: T10, Zap70 (Homo sapiens, UniProt P43403); assay: AlphaScreen kinase assay, Zap70; conditions: read-out: IC50, activity toward kinase Zap70
T10 construct: P1868.pFastBac1 ZAP70 D327-G606 HIS, WT; His7 (HHHHHHH) (C); made in house
T10 sequence (P43403 with tags, fused parts or gaps): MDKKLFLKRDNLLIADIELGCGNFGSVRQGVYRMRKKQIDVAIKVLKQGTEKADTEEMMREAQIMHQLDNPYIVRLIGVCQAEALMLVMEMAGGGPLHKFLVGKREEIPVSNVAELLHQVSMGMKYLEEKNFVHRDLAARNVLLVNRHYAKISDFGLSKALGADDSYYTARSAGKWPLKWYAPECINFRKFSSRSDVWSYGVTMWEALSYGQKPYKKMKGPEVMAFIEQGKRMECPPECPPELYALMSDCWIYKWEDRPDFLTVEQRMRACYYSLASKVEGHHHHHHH
Summary of the method: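 AlphaScreen read-out: acceptor-bead emission falls when kinase is inhibited. Biotin-peptide substrate captured on streptavidin donor beads, phospho-specific antibody on acceptor beads. 8 concentrations, 1:3 dilution series, from 20 mM DMSO stocks.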

Src = molecular target: T11, Src (Homo sapiens, UniProt P12931); assay: AlphaScreen kinase assay, Src; conditions: read-out: IC50, activity toward kinase Src
T11 construct: P1144. pET-N6 BI-PTP SRC V86-L536-X; made in house
T11 sequence (P12931 with tags, fused parts or gaps): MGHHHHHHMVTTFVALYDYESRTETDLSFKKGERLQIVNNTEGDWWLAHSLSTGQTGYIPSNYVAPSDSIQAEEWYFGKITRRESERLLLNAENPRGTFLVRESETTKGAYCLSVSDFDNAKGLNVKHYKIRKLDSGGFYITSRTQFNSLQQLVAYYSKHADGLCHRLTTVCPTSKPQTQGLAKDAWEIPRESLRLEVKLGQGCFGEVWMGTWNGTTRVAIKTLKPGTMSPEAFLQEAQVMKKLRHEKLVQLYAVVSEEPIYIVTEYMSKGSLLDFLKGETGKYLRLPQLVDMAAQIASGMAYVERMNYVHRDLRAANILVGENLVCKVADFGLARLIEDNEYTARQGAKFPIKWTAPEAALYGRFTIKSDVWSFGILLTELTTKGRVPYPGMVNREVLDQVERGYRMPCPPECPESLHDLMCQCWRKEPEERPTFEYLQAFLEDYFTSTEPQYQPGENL

Kit = molecular target: T12, Kit (Homo sapiens, UniProt P10721); assay: AlphaScreen kinase assay, Kit; conditions: read-out: IC50, activity toward kinase Kit
T12 construct: P1332.N6 BI PTP KIT M552-K948-X COD; His6 (N); made in house; host or cells: E. coli (PTP1B co-expressed)

Fms = molecular target: T13, Fms (Homo sapiens, UniProt P07333); assay: AlphaScreen kinase assay, Fms; conditions: read-out: IC50, activity toward kinase Fms
T13 construct: purchased Upstate Biotechnology

Jnk3 = molecular target: T14, Jnk3 (Homo sapiens, UniProt P53779); assay: AlphaScreen kinase assay, Jnk3; conditions: read-out: IC50, activity toward kinase Jnk3
T14 construct: purchased Upstate Biotechnology
T14 sequence (P53779 whole entry): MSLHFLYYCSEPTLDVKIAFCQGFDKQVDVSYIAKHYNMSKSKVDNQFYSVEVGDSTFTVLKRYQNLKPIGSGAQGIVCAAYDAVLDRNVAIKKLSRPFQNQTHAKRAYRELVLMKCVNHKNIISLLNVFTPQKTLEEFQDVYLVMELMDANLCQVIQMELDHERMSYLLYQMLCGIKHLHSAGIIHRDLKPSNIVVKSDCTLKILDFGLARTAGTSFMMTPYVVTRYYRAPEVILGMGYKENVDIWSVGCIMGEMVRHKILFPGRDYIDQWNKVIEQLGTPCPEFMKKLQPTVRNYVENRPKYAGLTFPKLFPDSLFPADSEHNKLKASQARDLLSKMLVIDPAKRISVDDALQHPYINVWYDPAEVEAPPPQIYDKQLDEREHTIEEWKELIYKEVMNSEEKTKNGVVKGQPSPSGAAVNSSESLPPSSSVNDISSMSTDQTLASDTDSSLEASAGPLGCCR

Jnk1 = molecular target: T15, Jnk1 (Homo sapiens, UniProt P45983); assay: AlphaScreen kinase assay, Jnk1; conditions: read-out: IC50, activity toward kinase Jnk1
T15 construct: purchased Upstate Biotechnology

Structure (SMILES): O=C(NCc1ccccc1)c1ccc(-c2c[nH]c3ncccc23)cc1 [Compound P-0278]
IC50 (Flt1): ≤ 10 µM
IC50 (Akt3): ≤ 10 µM

Structure (SMILES): COC(c1ccc(NCc2ccc(Cl)cc2)nc1)c1c[nH]c2ncccc12 (stereo not drawn) [Compound P-0307]
IC50 (Ret): ≤ 10 µM
IC50 (c-Raf-1): ≤ 10 µM
IC50 (Akt3): ≤ 10 µM
IC50 (B-Raf): ≤ 10 µM
IC50 (B-Raf V600E): ≤ 10 µM

Structure (SMILES): c1ccc2c(Cc3c[nH]c4ncccc34)cccc2c1 [Compound P-0442]
IC50 (MAP4K4): ≤ 10 µM
IC50 (Zap70): ≤ 10 µM
IC50 (FGFR1): ≤ 10 µM

Structure (SMILES): CN(C)c1ccc(Nc2ccnc3[nH]ccc23)cc1 [Compound P-0890]
IC50 (c-Raf-1): ≤ 10 µM
IC50 (Akt3): ≤ 10 µM

Structure (SMILES): COc1ccc(Nc2ccnc3[nH]ccc23)cc1Cl [Compound P-0936]
IC50 (Akt3): ≤ 10 µM

Structure (SMILES): O=C(c1c(F)ccc(NS(=O)(=O)N2CCCCC2)c1F)c1c[nH]c2ncccc12 [Compound P-0952, Piperidine-1-sulfonic acid [2,4-difluoro-3-(1H-pyrrolo[2,3-b]pyridine-3-carbonyl)-phenyl]-amide]
IC50 (Src): ≤ 10 µM
IC50 (c-Raf-1): ≤ 10 µM
IC50 (Akt3): ≤ 10 µM
IC50 (B-Raf): ≤ 10 µM
IC50 (B-Raf V600E): ≤ 10 µM
IC50 (Kit): ≤ 10 µM
IC50 (Fms): ≤ 10 µM
IC50 (FGFR1): ≤ 10 µM

Structure (SMILES): Cc1ccc(Nc2ccnc3[nH]ccc23)cc1[N+](=O)[O-] [Compound P-0995]
IC50 (Akt3): ≤ 10 µM

Structure (SMILES): CC(=O)c1cccc(Nc2ccnc3[nH]ccc23)c1 [Compound P-1027]
IC50 (c-Raf-1): ≤ 10 µM
IC50 (Flt1): ≤ 10 µM
IC50 (Akt3): ≤ 10 µM
IC50 (B-Raf): ≤ 10 µM
IC50 (FGFR1): ≤ 10 µM

Further lines, results first:

IC50 (Yes): ≤ 10 µM
IC50 (Stk6): ≤ 10 µM
IC50 (Kdr): ≤ 10 µM
IC50 (MAP4K4): ≤ 10 µM
Structure (SMILES): O=C(c1ccc(NCC2CC2)nc1)c1c[nH]c2ncccc12 [Compound P-0202]

IC50 (Ret): ≤ 10 µM
IC50 (Akt3): ≤ 10 µM
IC50 (FGFR1): ≤ 10 µM
Structure (SMILES): COc1cccc(C(=O)c2c[nH]c3nccc(-c4cccc(C(N)=O)c4)c23)c1 [Compound P-0329]

IC50 (Akt3): ≤ 10 µM
Structure (SMILES): c1cc(Nc2ccc3[nH]ccc3c2)c2cc[nH]c2n1 [Compound P-0940]

IC50 (Akt3): ≤ 10 µM
Structure (SMILES): CSc1ccc(Nc2ccnc3[nH]ccc23)cc1 [Compound P-0990]

IC50 (Src): ≤ 10 µM
IC50 (Jnk3): ≤ 10 µM
IC50 (Flt1): ≤ 10 µM
IC50 (Akt3): ≤ 10 µM
IC50 (B-Raf V600E): ≤ 10 µM
IC50 (Kit): ≤ 10 µM
IC50 (Jnk1): ≤ 10 µM
IC50 (FGFR1): ≤ 10 µM
Structure (SMILES): COc1ccc(Nc2cnc3[nH]ccc3c2)cc1Cl [Compound P-1021]

IC50 (Jnk3): ≤ 10 µM
IC50 (Akt3): ≤ 10 µM
IC50 (B-Raf V600E): ≤ 10 µM
Structure (SMILES): c1cc2cc(Nc3ccc4c(c3)OCCO4)cnc2[nH]1 [Compound P-1022]

IC50 (Akt3): ≤ 10 µM
Structure (SMILES): c1cnc2ccc(Nc3cnc4[nH]ccc4c3)cc2c1 [Compound P-1034]
